According to patent US7211597B2, “Substituted pyrazolyl compounds for the treatment of inflammation” (priority 2001, dated 2007):
Where two headings read alike, the source gives them in different places.

Target: T1, IKK2 (IKKβ) (Homo sapiens, UniProt O14920)
T1 construct: made in house; host or cells: baculovirus-infected insect cells (SF9)
T1 sequence (O14920 1-756): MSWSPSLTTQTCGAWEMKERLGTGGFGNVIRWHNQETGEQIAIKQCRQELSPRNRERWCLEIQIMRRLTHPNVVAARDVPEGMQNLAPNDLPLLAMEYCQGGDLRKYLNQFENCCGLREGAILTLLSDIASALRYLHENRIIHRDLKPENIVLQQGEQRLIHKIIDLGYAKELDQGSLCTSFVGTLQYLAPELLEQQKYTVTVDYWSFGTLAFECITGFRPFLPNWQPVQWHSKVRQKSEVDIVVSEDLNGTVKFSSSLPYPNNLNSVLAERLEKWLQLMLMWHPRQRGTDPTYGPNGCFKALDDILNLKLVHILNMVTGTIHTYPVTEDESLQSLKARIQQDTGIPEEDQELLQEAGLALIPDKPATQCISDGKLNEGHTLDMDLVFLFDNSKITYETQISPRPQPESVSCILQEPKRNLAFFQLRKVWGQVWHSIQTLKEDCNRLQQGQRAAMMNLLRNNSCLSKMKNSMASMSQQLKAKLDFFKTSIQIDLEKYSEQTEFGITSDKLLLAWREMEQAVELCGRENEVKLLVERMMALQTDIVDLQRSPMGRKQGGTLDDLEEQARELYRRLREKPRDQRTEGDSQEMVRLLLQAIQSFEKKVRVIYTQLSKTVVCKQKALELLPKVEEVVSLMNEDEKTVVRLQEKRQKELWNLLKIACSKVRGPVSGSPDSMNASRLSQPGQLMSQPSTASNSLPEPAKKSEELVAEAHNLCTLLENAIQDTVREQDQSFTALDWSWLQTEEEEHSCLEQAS
Experiment: IKK2 (IKKβ) resin enzyme assay
Type: biochemical
From the text: cDNAs of human IKK1 and IKK2 were amplified by reverse transcriptase-polymerase chain reaction from human placental RNA (Clonetech). hIKK1 was subcloned into pFastBac HTa (Life Technologies) and expressed as N-terminal His6-tagged fusion protein. The hIKK2 cDNA was amplified using a reverse oligonucleotide primer which incorporated the peptide sequence for a FLAG-epitope tag at the C-terminus of the IKK2 coding region (DYKDDDDKD). The hIKK2:FLAG cDNA was subcloned into the baculovirus vector pFastBac. The rhIKK2 ([…]) mutant was constructed in the same vector used for wild type rhIKK2 using a QuikChange™ mutagenesis kit (Stratagene). Viral stocks of each construct were used to infect insect cells grown in 40L suspension culture. […] Cell lysates were stored at −80° C. until purification of the recombinant proteins was undertaken as described below.
Isolation of rhIKK2 Homodimer
A 10 liter culture of baculovirus-expressing IKK2 tagged with FLAG peptide was centrifuged and the cell pellet (MOI=0.1 and I=72 hrs) was re-suspended in buffer A. These cells were microfluidized, and centrifuged at 100,000×g for 45 min. Supernatant was passed over a G-25 column equilibrated with Buffer A. Protein peak was collected and incubated with anti-FLAG affinity resin on a rotator overnight in buffer B. The resin was washed in batch with 10-15 bed volumes of buffer C. Washed resin was poured into a column and rhIKK2 homodimer was eluted using 5 bed volumes of buffer B containing FLAG peptide. 5 mM DTT, 0.1% NP-40 and BSA (concentrated to 0.1% in final amount) was added to the eluted enzyme before concentrating in using an Amicon membrane with a molecular weight cut-off of 30 kDa. Enzyme was aliquoted and stored at −80° C.
IKKβ kinase activity was measured using a biotinylated IκBα peptide (Gly-Leu-Lys-Lys-Glu-Arg-Leu-Leu-Asp-Asp-Arg-His-Asp-Ser32-Gly-Leu-Asp-Ser36-Met-Lys-Asp-Glu-Glu) (American Peptide Co.). […] contained 5 μM biotinylated IκBα peptide, 0.1 μCi/reaction [γ-^33P] ATP (Amersham) (about 1×10^5 cpm), 1 μM ATP (Sigma), 1 mM DTT (Sigma), 2 mM MgCl2 (Sigma), 2 mM MnCl2 (Sigma), 10 mM NaF (Sigma), 25 mM Hepes (Sigma) buffer, pH 7.6 and 20 μl enzyme solution and […] inhibitor in a final volume of 50 μl. After incubation at 25° C. for 30 min, 150 μl resin (Dowex anion-exchange resin AG1X8 200-400 mesh) in 900 mM formate, pH 3.0 was added to each well to stop the reaction. Resin was allowed to settle for one hour and 50 ul of supernatant was removed to a Micolite-2 flat bottom plate (Dynex). 150 μl of scintillation fluid (Microscint 40) (Packard) was added to each well. Incorporation of [γ-^33P] ATP was measured using a Top-Count NXT (Packard).

[1] = Table 2, read-out: IKK2 Resin Avg. IC50
[2] = Table 3, read-out: IKK2 Resin IC50
[3] = Table 4, read-out: IKK2 Resin IC50
[4] = Table 5, read-out: IKK2 Resin IC50

Compound	IC50 [1]	IC50 [2]	other results
CC(=O)N1Cc2c(C(N)=O)nn(-c3ccc4c(c3)OCO4)c2-c2cc(N)ccc21 [Example 17, 5-acetyl-8-amino-1-(1,3-benzodioxol-5-yl)-4,5-dihydro-1H-pyrazolo[4,3-c]quinoline-3-carboxamide acetate]	≤ 1 µM		
CC(=O)N1Cc2c(C(N)=O)nn(-c3ccc4c(c3)OCO4)c2-c2cc(NC(=O)c3ccccc3Cl)ccc21 [Example 18, 5-acetyl-1-(1,3-benzodioxol-5-yl)-8-[(2-chlorobenzoyl)amino]-4,5-dihydro-1H-pyrazolo[4,3-c]quinoline-3-carboxamide]	≤ 1 µM		
CC(=O)N1Cc2c(C(N)=O)nn(-c3ccc4c(c3)OCO4)c2-c2cc(NC(=O)c3ccncc3Cl)ccc21 [Example 22, 5-acetyl-1-(1,3-benzodioxol-5-yl)-8-[(3-chloroisonicotinoyl)amino]-4,5-dihydro-1H-pyrazolo[4,3-c]quinoline-3-carboxamide]	< 1 µM		
CC(=O)N1Cc2c(C(N)=O)nn(-c3ccc4c(c3)OCO4)c2-c2cc(NS(C)(=O)=O)ccc21 [Example 23, 5-acetyl-1-(1,3-benzodioxol-5-yl)-8-[(methylsulfonyl)amino]-4,5-dihydro-1H-pyrazolo[4,3-c]quinoline-3-carboxamide]	< 1 µM		
CC(=O)N1Cc2c(C(N)=O)nn(-c3ccc(F)cc3)c2-c2cc(NS(C)(=O)=O)ccc21 [Example 25, 5-acetyl-1-(4-fluorophenyl)-8-[(methylsulfonyl)amino]-4,5-dihydro-1H-pyrazolo[4,3-c]quinoline-3-carboxamide]	< 1 µM		
NC(=O)c1nn(-c2ccc3c(c2)OCO3)c2c1COc1ccc(NC(=O)c3cc4c(cc3Cl)OCO4)cc1-2 [Example 31, 1-(1,3-benzodioxol-5-yl)-8-{[(6-chloro-1,3-benzodioxol-5-yl)carbonyl]amino}-1,4-dihydrochromeno[4,3-c]pyrazole-3-carboxamide]		≤ 1 µM	
NC(=O)c1nn(-c2ccc3c(c2)OCO3)c2c1COc1ccc(NC(=O)c3ccncc3Cl)cc1-2 [Example 32, 1-(1,3-benzodioxol-5-yl)-8-[(3-chloroisonicotinoyl)amino]-1,4-dihydrochromeno[4,3-c]pyrazole-3-carboxamide]		≤ 1 µM	
NC(=O)c1nn(-c2ccc3c(c2)OCO3)c2c1COc1ccc(NC(=O)c3cc(N)ccc3Cl)cc1-2 [Example 33, 8-[(5-amino-2-chlorobenzoyl)amino]-1-(1,3-benzodioxol-5-yl)-1,4-dihydrochromeno[4,3-c]pyrazole-3-carboxamide]		≤ 1 µM	
NC(=O)c1nn(-c2ccc3c(c2)OCO3)c2c1COc1ccc(NC(=O)c3ccccc3Cl)cc1-2 [Example 34, 1-(1,3-benzodioxol-5-yl)-8-[(2-chlorobenzoyl)amino]-1,4-dihydrochromeno[4,3-c]pyrazole-3-carboxamide]		≤ 1 µM	
NC(=O)c1nn(-c2ccc3c(c2)OCO3)c2c1COc1ccc(NC(=O)c3cccc(Cl)c3Cl)cc1-2 [Example 45, 1-(1,3-benzodioxol-5-yl)-8-[(2,3-dichlorobenzoyl)amino]-1,4-dihydrochromenol[4,3-c]pyrazole-3-carboxamide]		≥ 100 µM	
NC(=O)c1nn(-c2ccc(F)cc2)c2c1COc1ccc(NC(=O)c3cccnc3Cl)cc1-2 [Example 47, 8-{[(2-chloropyridin-3-yl)carbonyl]amino}-1-(4-fluorophenyl)-1,4-dihydrochromenol[4,3-c]pyrazole-3-carboxamide]			IC50 [3]: ≤ 1 µM
NC(=O)c1nn(-c2cccc(F)c2)c2c1COc1ccc(NC(=O)c3cccnc3Cl)cc1-2 [Example 48, 8-{[(2-chloropyridin-3-yl)carbonyl]amino}-1-(3-fluorophenyl)-1,4-dihydrochromenol[4,3-c]pyrazole-3-carboxamide]			IC50 [3]: ≤ 1 µM
NC(=O)c1nn(-c2ccc(F)cc2)c2c1COc1ccc(NC(=O)c3ccncc3Cl)cc1-2 [Example 53, 8-[(3-chloroisonicotinoyl)amino]-1-(4-fluorophenyl)-1,4-dihydrochromeno[4,3-c]pyrazole-3-carboxamide]			IC50 [3]: < 1 µM
CS(=O)(=O)c1ccc(-n2nc(C(N)=O)c3c2-c2cc(NC(=O)c4ccccc4Cl)ccc2OC3)cc1 [Example 54, 8-[(2-chlorobenzoyl)amino]-1-[4-(methylsulfonyl)phenyl]-1,4-dihydrochromeno[4,3-c]pyrazole-3-carboxamide]			IC50 [4]: ≤ 1 µM
C[S+]([O-])c1ccc(-n2nc(C(N)=O)c3c2-c2cc(NC(=O)c4ccccc4Cl)ccc2OC3)cc1 (stereo not shown) [Example 55, 8-[(2-chlorobenzoyl)amino]-1-[4-(methylsulfinyl)phenyl]-1,4-dihydrochromeno[4,3-c]pyrazole-3-carboxamide]			IC50 [4]: ≥ 1 µM
CSc1ccc(-n2nc(C(N)=O)c3c2-c2cc(NC(=O)c4ccccc4Cl)ccc2OC3)cc1 [Example 57]			IC50 [4]: ≥ 10 µM
